From patent US9504255B2, “Physical antimicrobial method” (priority 2012, dated 2016)

Key:
[1] = test system: patients clinically diagnosed with impetigo; assay: Experiment of treatment of impetigo; assay type: in vivo, human; conditions: to the affected area 2 times a day, for 7 days
Experimental: 1652 patients clinically diagnosed with impetigo by the Department of Dermatology in the hospital were chosen and randomly divided into experimental group (n=1032) and control group (n=620). The experimental group was treated with the antimicrobial composition of the invention to the affected area, and the control group was treated with mupirocin, 2 times a day, for 7 days.

[2] = test system: Acinetobacter; assay: Drug-resistance experiment on pathogens isolated from the Department of Burns (NCCLS 1997); assay type: cell-based; conditions: clinical isolates
[3] = test system: Pseudomonas aeruginosa; assay: as above; assay type: cell-based; conditions: clinical isolates
[4] = test system: Escherichia coli; assay: as above; assay type: cell-based; conditions: clinical isolates
[5] = test system: Enterobacter cloacae; assay: as above; assay type: cell-based; conditions: clinical isolates
[6] = test system: aerogenes; assay: as above; assay type: cell-based, Enterobacter aerogenes; conditions: clinical isolates
[7] = test system: MSSA; assay: as above; assay type: cell-based, Staphylococcus aureus; conditions: clinical isolates

C/C(=C\C(=O)OCCCCCCCCC(=O)O)C[C@@H]1OC[C@H](C[C@@H]2O[C@H]2[C@@H](C)[C@H](C)O)[C@@H](O)[C@H]1O [mupirocin]
effective rate [1]: 85%

CCN1CCN(C(=O)N[C@@H](C(=O)N[C@@H]2C(=O)N3[C@@H]2SC(C)(C)[C@@H]3C(=O)O)c2ccccc2)C(=O)C1=O [piperacillin]
resistance rate of Acinetobacter [2]: 93.3%

piperazine amoxicillin
resistance rate of Pseudomonas aeruginosa [3]: 34.1%

CC(C)(O/N=C(\C(=O)N[C@@H]1C(=O)N2C(C(=O)[O-])=C(C[n+]3ccccc3)CS[C@H]12)c1csc(N)n1)C(=O)O [ceftazidime]
resistance rate of Pseudomonas aeruginosa [3]: 21.7% | resistance rate of Acinetobacter [2]: 21.2%

Cc1nnc(SCC2=C(C(=O)O)N3C(=O)[C@@H](NC(=O)Cn4cnnn4)[C@H]3SC2)s1 [cefazolin]
resistance rate of Escherichia coli [4]: 40.0% | resistance rate of Enterobacter cloacae [5]: 89.3% | resistance rate of aerogenes [6]: 79.3%

penicillin
resistance rate of MSSA [7]: 87.0%

CC1(C)S[C@@H]2[C@H](NC(=O)[C@H](N)c3ccccc3)C(=O)N2[C@H]1C(=O)O [ampicillin]
resistance rate of Escherichia coli [4]: 80.1%

gentamicin
resistance rate of Pseudomonas aeruginosa [3]: 35.3% | resistance rate of Acinetobacter [2]: 18.9% | resistance rate of Escherichia coli [4]: 40.9% | resistance rate of Enterobacter cloacae [5]: 28.1% | resistance rate of aerogenes [6]: 8.2%
